The values that follow come from US9963474B2, “Mitochondria-targeted dicarbonyl sequestering compounds” (MEDICAL RESEARCH COUNCIL, priority 2013, dated 2018).

A short description of data set [1]: Partition coefficients between PBS and octan-1-ol. The note with it: means ± SE of 3 determinations. It is filed as physicochemical. How it is done: (§1) RP-HPLC was performed using a Gilson 321 pump with a C18 column (Jupiter 300 Å, Phenomenex) with a Widepore C18 guard column (Phenomenex). Samples (1 ml) were injected through a 0.22 μm PVDF filter (Millex, Millipore). HPLC buffer A [0.1% TFA in water] and HPLC buffer B (90% acetonitrile and 0.1% TFA) were used and a gradient was run at 1 ml/min at room temperature as follows: 0-2 min—5% B; 2-17 min—5-100% B; 17-19 min—100% B; 19-22 min—100-5% B. Peaks were detected by absorbance at 220 nm (UV/Vis 151, Gilson) and by fluorescence (excitation and emission wavelengths of 344 and 433 nm; RF-10AXL, Shimadzu). Partition coefficients between PBS and octan-1-ol were determined as previously described.

A short description of data set [2]: Stability of compounds assessed by RP-HPLC. Type of data set: physicochemical. The note with it: 37° C., one week, RP-HPLC. How it is done: as §1
The syntheses of MitoG, its predicted quinoxaline products upon reaction with methylglyoxal and glyoxal, and their deuterated versions are summarized in FIG. 2. As expected, the spectrum of MitoG was a summation of those of the phenylenediamine, hexyloxyphenylenediamine (HP), and a simple alkylTPP salt.
The expected products of the reaction of MitoG with methylglyoxal (MQE) and glyoxal (QE) were synthesized and have UV/Vis absorption spectra distinct from that of MitoG (FIG. 3B). Both QE and MQE were fluorescent, while MitoG was not (FIG. 3C). The three compounds were resolved by RP-HPLC (FIG. 3D) although the MQE regioisomers (MQE1, MQE2; FIG. 1B) were not distinguished. Both MQE and QE were stable after one week at 37° C. as assessed by RP-HPLC (data not shown). It was concluded that MitoG is sufficiently stable for biological experiments involving trapping of glyoxal and methylglyoxal within mitochondria in cells and in vivo, and the reaction products MQE and QE were both robustly stable for chemical isolation and subsequent LC-MS/MS analyses.

For data set [3] the following is noted: 25° C., literature [49]; cited from earlier work.

Turning to `O=C([O-])C(F)(F)F.c1ccc([P+](CCCCCCOc2ccc3nccnc3c2)(c2ccccc2)c2ccccc2)cc1` [QE, (6-(6-Quinoxalinyloxy)hexyl)triphenylphosphonium trifluoroacetate], in data set [1] (octan-1-ol/PBS, read-out: Partition coefficient (converted)), the logD is 1.13. Further, the “stability after one week” value in data set [2] is reported as “stable”.

For the compound `Nc1ccccc1N` [o-phenylenediamine], the “rate constant for reaction with methylglyoxal, reported value” in data set [3] is 1.7 ± 0.3 M⁻¹ s⁻¹.

In turn, `Cc1cnc2cc(OCCCCCC[P+](c3ccccc3)(c3ccccc3)c3ccccc3)ccc2n1.O=C([O-])C(F)(F)F` [MQE, (6-(6-(2-Methyl-quinoxalinyloxy))hexyl)triphenylphosphonium trifluoroacetate] came in with a Partition coefficient in data set [1] of 12.3 ± 0.5. Further, the “stability after one week” value in data set [2] is given as “stable”.
